Laboratory results taken from US20250186396A1, “COMPOSITIONS AND METHODS FOR THE TREATMENT OF GLIOBLASTOMA WITH A DUAL TARGETING ANTI-TUMOR COMPOSITION” (Northwestern University, priority 2023, published 2025).

Key:
[1] = system: U87, PTEN-KO SF763 cells and 005 GSCs; assay: Proliferation (CFSE) and colony formation assays; format: cell-based; details: BAPN 200 μM or SR9009 5 μM
Procedure: Proliferation (CFSE) assay. Cell proliferation was assessed using the CellTrace carboxy fluorescein succinimidyl ester (CFSE) Cell Proliferation Kit (Invitrogen, #C34554). Briefly, 1×10^6 cells were collected and incubated with CFSE working solution (1:1,000) for 20 minutes at 37° C. The staining was stopped by adding complete cell culture media. After washing, cells were cultured for 3 days with or without the treatment of BAPN (Sigma-Aldrich, #B-A3134, 200 μM), or SR9009 (Cayman, #11929, 5 μM) in the dark and used for flow cytometry analysis. The percentage of CFSE positive peaks over the undivided peak (generation 0) was analyzed using FlowJo v10.8.1.
Colony formation assay. 1×10^3 GBM cells were seeded in each well of 6-well plates with or without the treatment of BAPN (Sigma-Aldrich, #B-A3134, 200 μM), or SR9009 (Cayman, #11929, 5 μM). After 7-10 days, cells were fixed and stained with 0.5% crystal violet in 25% methanol for 1 hour. After three times washing by PBS, the plates were scanned, and the colony number was counted using ImageJ.

005 GSC tumors = assay: Flow cytometry of tumor-derived immune cells, 005 GSC tumors; format: in vivo, C57BL/6 mice
Procedure: Mice and Intracranial Xenograft Tumor Models. Female C57BL/6 mice at 3 to 4 weeks of age were purchased from the Jackson Laboratory (#0000664). All animals were grouped by 5 mice per cage and maintained in IVC System (San Diego, CA) for a week before the experiment. All animal experiments were performed with the approval of the Institutional Animal Care and Use Committee (IACUC) at Northwestern University. The intracranial xenograft tumor models were established previously. In brief, mice were anesthetized by isoflurane through IMPAC6 Anesthesia System. Then a dental drill was used to open a small hole in the skull of mice 1.2 mm anterior and 3.0 mm lateral to the bregma. Mice were placed into the stereotactic apparatus, and 5 μL 005 GSC, CT2A, or GL261 cells in FBS-free culture medium were injected into the right caudate nucleus 3 mm below the surface of the brain using a 10 μL Hamilton syringe with an unbeveled 30-gauge needle. The incision was closed using Vetbond glue. Meloxicam (20 mg/kg, daily) was subcutaneously injected for pain relief for 3 days after surgery. Mice received the treatment with BAPN (2 g/L in drinking water) on day 4, SR9009 (100 mg/kg body weight, i.p.) daily for 10 days beginning at day 7 post-orthotopic injection, anti-PD1 (10 mg/kg body weight, i.p.) on days 11, 14, and 17 post-orthotopic injection, and/or clodronate liposomes (200 μL, once every 3 days) starting at day 4 post-orthotopic injection. Mice with neurological deficits or moribund appearance were sacrificed according to the IACUC protocol. At the end of the experiment, the brains of mice were collected, either fixed in 4% paraformaldehyde (PFA) (ThermoFisher Scientific, #J61899.AK) after transcardiac perfusion with PBS for optimal cutting temperature (OCT)-cryosectioning or processed using the percoll density gradient cell separation method to isolate tumor-derived immune cells for flow cytometry analysis.
Tumor-derived immune cells isolation. Mice with neurologic deficits or moribund appearance were sacrificed to harvest their brains. Immune cells in the brain tumors were isolated using the percoll density gradient cell separation method as previously described. In brief, after perfusion with PBS, brains were homogenized on ice with pre-cold 10 mL HBSS. Then cells were spun down at 1,500 rpm for 10 minutes at 4° C., and were resuspended in 30% Percoll (GE Healthcare, #17-0891-01). The solution was gently laid on top of the 70% Percoll and centrifuged at 1,200 g for 30 minutes at 4° C. with accelerator 7 and breaker 0. After removing myelin and debris, the interphase was collected and centrifuged at 1,500 rpm for 10 minutes at 4° C. […]
Flow cytometry. […] Samples were read through the BD FACSymphony or BD LSRFortessa flow cytometer and analyzed in FlowJo v10.8.1.

For `N#CCCN` [BAPN, β-aminopropionitrile], the GBM cell proliferation [1] was “had no such effect”, the “CD45+CD3+CD8+CD69+ activated T cells” value (005 GSC tumors) was “Increases” and the “CD45+CD3+CD8+IFN-γ+ activated T cells” value (005 GSC tumors) was “Increases”.
With `CCOC(=O)N1CCC(CN(Cc2ccc(Cl)cc2)Cc2ccc([N+](=O)[O-])s2)C1` (stereo not drawn) [SR9009] the GBM cell proliferation [1] was “impaired”, the “CD45+CD3+CD8+CD69+ activated T cells” value (005 GSC tumors) was “Increases” and the “CD45+CD3+CD8+IFN-γ+ activated T cells” value (005 GSC tumors) was “Increases”.
